Data as given in US11369648B2 (priority 2018, dated 2022).
Entries after “also recorded” stand apart in the source; their conditions may differ.

Assays:
influenza virus [1] = experiment: Effect on body weight of influenza mice; format: in vivo, ICR female mice; conditions: fourth day after challenge, bacteria 10^9 CFU intragastrically daily from two weeks before challenge, ribavirin intraperitoneally from second day
influenza virus [2] = experiment: Effect on blood indexes (neutrophils, lymphocytes) of influenza mice; parameters: species or system ICR female mice; conditions: mouse, in vivo
influenza virus [3] = system: influenza virus; parameters: species or system ICR female mice; conditions: mouse, in vivo
influenza virus [4] = experiment: Effect on viral load in lungs of influenza mice (qPCR); format: in vivo, ICR female mice
antiviral protein MxA = format: in vivo, ICR female mice; conditions: qPCR, GAPDH internal reference, 2^-ΔΔt, times that of the model group

NC(=O)c1ncn([C@@H]2O[C@H](CO)[C@@H](O)[C@H]2O)n1 [Treatment, ribavirin]
body weight decrease compared with the control group (Control) (influenza virus [1]): about 5% | lymphocytes, change compared with the blank control group (Control) (influenza virus [2]): without significant differences | neutrophils, change compared with the blank control group (Control) (influenza virus [2]): without significant differences | lung histopathology (inflammation, infiltration of inflammatory cells) (influenza virus [3]): mild infiltration of inflammatory cells; also recorded: relatively mild inflammation; also recorded: some moderate and mild inflammation | reduction in viral load in the lungs (significance versus model group) (influenza virus [4]; mouse, in vivo): has significance | viral load in the lungs, relative to the model group (influenza virus [4]; right lung, fifth day after challenge, qPCR, GAPDH internal reference, 2^-ΔΔt, % of that of the model group): 38.03% | expression quantity of MxA in the lungs, relative to the model group (Model) (antiviral protein MxA): 2.62 times
